Activity calls are given as the source filed them. No cut-off for these calls is given here.
Tests used:
[1] = Metabolic stability in rat liver microsomes assessed as intrinsic clearance at 1 uM preincubated for 10 mins followed by NADPH addition and measured for 60 mins by LC-MS/MS analysis; type: ADME, Microsome; settings: read-out: CLH
[2] = Bioavailability in Sprague-Dawley rat at 5 mg/kg, po or 1 mg/kg, iv administered as single dose and measured for 24 hrs by LC-MS/MS analysis; type: ADME, organism-based; settings: in vivo
[3] = target: Dual specificity protein kinase CLK2 (Homo sapiens, UniProt P49760); assay: Binding affinity to CLK2 (unknown origin) assessed as dissociation constant by competitive binding assay
Dual specificity protein kinase CLK2, sequence (P49760 whole entry): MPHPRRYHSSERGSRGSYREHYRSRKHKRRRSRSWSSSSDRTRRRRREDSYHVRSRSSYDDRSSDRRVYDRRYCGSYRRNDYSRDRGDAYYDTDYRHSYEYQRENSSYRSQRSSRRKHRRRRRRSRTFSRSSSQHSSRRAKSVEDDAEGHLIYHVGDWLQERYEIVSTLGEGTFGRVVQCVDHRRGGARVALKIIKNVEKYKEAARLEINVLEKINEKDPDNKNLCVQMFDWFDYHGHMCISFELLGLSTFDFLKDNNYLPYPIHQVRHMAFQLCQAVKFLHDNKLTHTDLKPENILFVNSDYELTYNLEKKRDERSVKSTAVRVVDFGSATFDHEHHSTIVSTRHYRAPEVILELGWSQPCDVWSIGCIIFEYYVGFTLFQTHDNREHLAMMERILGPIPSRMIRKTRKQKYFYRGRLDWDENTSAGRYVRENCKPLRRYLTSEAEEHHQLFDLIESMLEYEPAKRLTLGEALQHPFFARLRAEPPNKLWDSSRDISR

[4] = tested on: MV4-11; assay: Induction of cell cycle arrest in human MV4-11 cells assessed as reduction in accumulation of cells at G2/M phase at 0.01 to 1 uM incubated for 48 hrs; type: functional, cell-based; settings: dose 0.01-1 µM
[5] = target: Dual specificity protein kinase CLK1 (Homo sapiens, UniProt P49759); assay: Binding affinity to CLK1 (unknown origin) assessed as dissociation constant by competitive binding assay
Dual specificity protein kinase CLK1, sequence (P49759 whole entry): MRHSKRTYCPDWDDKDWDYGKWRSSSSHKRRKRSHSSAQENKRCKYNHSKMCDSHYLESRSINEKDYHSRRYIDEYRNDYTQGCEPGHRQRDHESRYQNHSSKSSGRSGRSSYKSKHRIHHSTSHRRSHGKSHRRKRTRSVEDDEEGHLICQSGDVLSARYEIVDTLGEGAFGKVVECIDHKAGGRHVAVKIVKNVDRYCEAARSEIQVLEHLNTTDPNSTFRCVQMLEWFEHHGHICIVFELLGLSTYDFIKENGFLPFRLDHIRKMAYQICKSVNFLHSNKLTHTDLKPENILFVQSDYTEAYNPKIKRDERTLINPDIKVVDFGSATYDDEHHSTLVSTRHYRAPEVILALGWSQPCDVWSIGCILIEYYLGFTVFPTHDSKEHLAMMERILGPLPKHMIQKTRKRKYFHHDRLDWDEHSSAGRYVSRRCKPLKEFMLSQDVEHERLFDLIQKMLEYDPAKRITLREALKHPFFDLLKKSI

[6] = target: CDK8/Cyclin C (Homo sapiens, UniProt P49336); assay: Inhibition of His tagged human recombinant CDK8/Cyclin C expressed in baculovirus expression system incubated for 15 mins by FRET-based LanthaScreen binding competition assay
CDK8/Cyclin C, sequence (P49336 whole entry): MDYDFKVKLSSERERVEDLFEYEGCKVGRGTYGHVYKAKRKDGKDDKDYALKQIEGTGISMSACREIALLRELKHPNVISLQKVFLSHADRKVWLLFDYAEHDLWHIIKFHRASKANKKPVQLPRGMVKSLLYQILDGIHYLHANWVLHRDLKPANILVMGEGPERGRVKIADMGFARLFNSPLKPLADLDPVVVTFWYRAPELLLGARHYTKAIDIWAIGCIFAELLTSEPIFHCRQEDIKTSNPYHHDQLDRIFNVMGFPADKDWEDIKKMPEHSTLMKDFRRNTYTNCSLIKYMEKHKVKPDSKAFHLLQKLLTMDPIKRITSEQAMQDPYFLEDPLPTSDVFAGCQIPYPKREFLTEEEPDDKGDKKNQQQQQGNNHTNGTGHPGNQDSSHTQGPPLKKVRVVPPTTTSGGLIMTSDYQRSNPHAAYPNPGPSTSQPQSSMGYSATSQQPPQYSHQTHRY
CDK8/Cyclin C, sequence (P24863 whole entry, further chain): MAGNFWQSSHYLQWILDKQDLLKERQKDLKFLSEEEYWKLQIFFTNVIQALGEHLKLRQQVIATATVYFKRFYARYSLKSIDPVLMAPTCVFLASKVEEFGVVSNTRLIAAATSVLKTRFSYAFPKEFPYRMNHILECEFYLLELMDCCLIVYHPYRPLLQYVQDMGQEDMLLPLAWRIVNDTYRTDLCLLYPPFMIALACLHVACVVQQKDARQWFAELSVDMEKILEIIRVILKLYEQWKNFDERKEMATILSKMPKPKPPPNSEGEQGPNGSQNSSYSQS

[7] = Cytotoxicity against HEK293 cells; type: toxicity, cell-based; settings: human
[8] = Antitumor activity against mouse LL2 cells implanted in C57BL/6J syngeneic mouse model assessed as tumor growth inhibition at 1 mg/kg, po administered via gavage twice daily for 14 days in presence of mPDL1 antibody administered twice per week and measured 3 times a week by caliper method relative to control; type: functional; settings: Lewis lung carcinoma, 336 h, time 14 day, read-out: TGI
[9] = target: Cyclin-dependent kinase 19 (Homo sapiens, UniProt Q9BWU1); assay: Inhibition of CDK19 (unknown origin)
Cyclin-dependent kinase 19, sequence (Q9BWU1 whole entry): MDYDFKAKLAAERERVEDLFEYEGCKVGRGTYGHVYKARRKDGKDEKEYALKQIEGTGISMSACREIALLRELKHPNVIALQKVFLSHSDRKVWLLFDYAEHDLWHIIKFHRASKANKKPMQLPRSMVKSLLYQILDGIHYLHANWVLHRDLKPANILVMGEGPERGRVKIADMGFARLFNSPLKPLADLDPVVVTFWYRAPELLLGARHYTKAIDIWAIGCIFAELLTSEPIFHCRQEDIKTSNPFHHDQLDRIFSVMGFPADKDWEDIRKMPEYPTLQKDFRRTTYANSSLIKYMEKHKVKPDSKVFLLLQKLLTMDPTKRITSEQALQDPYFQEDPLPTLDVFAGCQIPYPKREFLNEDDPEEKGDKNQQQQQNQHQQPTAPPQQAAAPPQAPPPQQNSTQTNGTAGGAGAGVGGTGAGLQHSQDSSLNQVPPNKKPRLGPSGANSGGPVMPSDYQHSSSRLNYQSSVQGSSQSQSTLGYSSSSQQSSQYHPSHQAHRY

[10] = tested on: MV4-11; assay: Induction of cell cycle arrest in human MV4-11 cells assessed as accumulation of cells at G0/G1 phase at 0.01 to 1 uM incubated for 48 hrs; type: functional, cell-based; settings: dose 0.01-1 µM
[11] = target: Cytochrome P450 2C19 (Homo sapiens, UniProt P33261); assay: Inhibition of CYP2C19 in human liver microsomes using S-mephenytoin as substrate assessed as reduction in substrate hydroxylation incubated for 10 mins in presence of NADPH by LC-MS/MS analysis; type: ADME, Microsome
Cytochrome P450 2C19, sequence (P33261 whole entry): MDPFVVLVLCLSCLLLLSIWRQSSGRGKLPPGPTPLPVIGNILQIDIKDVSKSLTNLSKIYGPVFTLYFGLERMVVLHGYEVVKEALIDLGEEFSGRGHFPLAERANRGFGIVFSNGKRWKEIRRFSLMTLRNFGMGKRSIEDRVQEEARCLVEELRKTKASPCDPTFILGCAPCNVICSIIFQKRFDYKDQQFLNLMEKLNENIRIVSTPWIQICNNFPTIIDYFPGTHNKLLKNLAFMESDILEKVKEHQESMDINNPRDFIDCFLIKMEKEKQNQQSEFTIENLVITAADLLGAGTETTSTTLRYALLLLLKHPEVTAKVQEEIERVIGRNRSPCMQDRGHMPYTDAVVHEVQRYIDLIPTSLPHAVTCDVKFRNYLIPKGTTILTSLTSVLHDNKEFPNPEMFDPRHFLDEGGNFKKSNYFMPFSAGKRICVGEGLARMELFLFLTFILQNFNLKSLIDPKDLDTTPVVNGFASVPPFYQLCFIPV

[12] = Volume of distribution in Beagle dog at 1 mg/kg, po or 0.5 mg/kg, iv administered as single dose and measured for 24 hrs by LC-MS/MS analysis; type: ADME, organism-based, Canis lupus familiaris; settings: in vivo
[13] = tested on: MV4-11; assay: Induction of cell cycle arrest in human MV4-11 cells assessed as reduction in accumulation of cells at S phase at 0.01 to 1 uM incubated for 48 hrs; type: functional, cell-based; settings: dose 0.01-1 µM
[14] = Volume of distribution in Sprague-Dawley rat at 5 mg/kg, po or 1 mg/kg, iv administered as single dose and measured for 24 hrs by LC-MS/MS analysis; type: ADME, organism-based; settings: in vivo
[15] = Bioavailability in CD-1 mouse at 5 mg/kg, po or 1 mg/kg, iv administered as single dose and measured for 24 hrs by LC-MS/MS analysis; type: ADME, organism-based; settings: in vivo
[16] = target: Glycogen synthase kinase-3 beta (Homo sapiens, UniProt P49841)
Glycogen synthase kinase-3 beta, sequence (P49841 whole entry): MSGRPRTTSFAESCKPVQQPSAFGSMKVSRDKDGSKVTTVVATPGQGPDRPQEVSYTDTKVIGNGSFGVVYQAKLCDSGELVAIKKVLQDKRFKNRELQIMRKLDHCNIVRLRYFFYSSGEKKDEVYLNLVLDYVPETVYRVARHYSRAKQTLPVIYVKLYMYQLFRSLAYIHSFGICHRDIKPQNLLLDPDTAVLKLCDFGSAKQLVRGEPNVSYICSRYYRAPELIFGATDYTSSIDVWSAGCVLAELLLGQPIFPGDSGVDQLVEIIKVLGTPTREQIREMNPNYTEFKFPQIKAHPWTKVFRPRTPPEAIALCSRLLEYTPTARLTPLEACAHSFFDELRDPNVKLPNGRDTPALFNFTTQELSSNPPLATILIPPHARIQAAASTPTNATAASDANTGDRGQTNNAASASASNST
Description: Binding affinity to GSK3B (unknown origin) assessed as dissociation constant by competitive binding assay

[17] = target: Cytochrome P450 2C9 (Homo sapiens, UniProt P11712); assay: Inhibition of CYP2C9 in human liver microsomes using diclofenac as substrate assessed as reduction in substrate hydroxylation incubated for 10 mins in presence of NADPH by LC-MS/MS analysis; type: ADME, Microsome
Cytochrome P450 2C9, sequence (P11712 whole entry): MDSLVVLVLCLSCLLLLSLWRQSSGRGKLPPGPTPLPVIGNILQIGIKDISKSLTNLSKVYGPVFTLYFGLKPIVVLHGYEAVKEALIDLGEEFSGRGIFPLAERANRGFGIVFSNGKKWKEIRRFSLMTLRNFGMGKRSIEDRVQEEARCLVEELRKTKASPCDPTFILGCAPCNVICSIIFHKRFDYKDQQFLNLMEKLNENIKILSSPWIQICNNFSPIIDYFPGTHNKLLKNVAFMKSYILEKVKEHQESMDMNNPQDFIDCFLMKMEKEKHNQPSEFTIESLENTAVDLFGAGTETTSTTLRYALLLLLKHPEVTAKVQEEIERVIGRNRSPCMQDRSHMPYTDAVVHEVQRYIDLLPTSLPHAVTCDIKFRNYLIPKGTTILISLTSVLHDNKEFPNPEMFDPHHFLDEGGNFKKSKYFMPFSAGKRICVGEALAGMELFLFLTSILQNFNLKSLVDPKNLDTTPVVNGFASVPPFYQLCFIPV

[18] = target: Cytochrome P450 2D6 (Homo sapiens, UniProt P10635); assay: Inhibition of CYP2D6 in human liver microsomes using dextromethorphan as substrate assessed as reduction in substrate demethylation incubated for 10 mins in presence of NADPH by LC-MS/MS analysis; type: ADME, Microsome
Cytochrome P450 2D6, sequence (P10635 whole entry): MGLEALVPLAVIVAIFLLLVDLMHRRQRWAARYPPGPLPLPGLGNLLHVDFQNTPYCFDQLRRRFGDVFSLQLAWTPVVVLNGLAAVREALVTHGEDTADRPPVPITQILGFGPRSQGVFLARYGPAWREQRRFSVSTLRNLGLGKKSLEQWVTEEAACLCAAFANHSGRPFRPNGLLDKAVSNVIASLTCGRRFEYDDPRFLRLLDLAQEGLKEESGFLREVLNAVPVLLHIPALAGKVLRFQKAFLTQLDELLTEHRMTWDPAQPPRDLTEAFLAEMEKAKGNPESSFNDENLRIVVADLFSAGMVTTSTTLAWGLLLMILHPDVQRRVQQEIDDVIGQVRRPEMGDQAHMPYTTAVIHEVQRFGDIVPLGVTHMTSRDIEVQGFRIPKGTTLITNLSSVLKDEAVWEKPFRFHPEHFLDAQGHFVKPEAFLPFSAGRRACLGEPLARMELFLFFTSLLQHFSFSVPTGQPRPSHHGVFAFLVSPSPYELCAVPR

[19] = target: T1, Signal transducer and activator of transcription 1-alpha/beta (Homo sapiens) (UniProt P42224); assay: Inhibition of STAT1 phosphorylation at S727 residue in human MV4-11 cells incubated for 24 hrs by Western blot analysis; type: cell-based; settings: dose 0.001-1 µM
T1 sequence (whole entry): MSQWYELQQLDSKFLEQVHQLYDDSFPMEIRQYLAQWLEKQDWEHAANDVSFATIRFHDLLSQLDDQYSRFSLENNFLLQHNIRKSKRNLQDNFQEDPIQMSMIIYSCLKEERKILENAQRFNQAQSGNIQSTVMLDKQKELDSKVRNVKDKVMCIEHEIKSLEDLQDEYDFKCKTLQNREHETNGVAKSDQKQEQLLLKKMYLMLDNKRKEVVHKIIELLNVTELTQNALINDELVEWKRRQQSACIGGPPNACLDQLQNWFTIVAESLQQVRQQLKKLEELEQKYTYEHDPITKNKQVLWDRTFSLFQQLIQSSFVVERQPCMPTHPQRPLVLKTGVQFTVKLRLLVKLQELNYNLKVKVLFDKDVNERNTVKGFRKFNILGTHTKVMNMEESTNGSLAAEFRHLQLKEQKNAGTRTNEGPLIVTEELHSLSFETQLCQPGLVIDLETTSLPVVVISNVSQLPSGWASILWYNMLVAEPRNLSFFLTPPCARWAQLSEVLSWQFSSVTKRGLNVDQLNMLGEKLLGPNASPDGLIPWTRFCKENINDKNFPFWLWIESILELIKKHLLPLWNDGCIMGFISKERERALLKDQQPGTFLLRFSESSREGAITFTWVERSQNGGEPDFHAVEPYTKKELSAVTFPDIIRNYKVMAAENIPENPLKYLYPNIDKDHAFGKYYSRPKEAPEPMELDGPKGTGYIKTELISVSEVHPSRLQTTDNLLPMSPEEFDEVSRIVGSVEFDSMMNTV

[20] = Half life in CD-1 mouse at 5 mg/kg, po or 1 mg/kg, iv administered as single dose and measured for 24 hrs by LC-MS/MS analysis; type: ADME, organism-based; settings: in vivo
[21] = tested on: MV4-11; assay: Antitumor activity against human MV4-11 cells xenografted in BALB/c nude mouse assessed as tumor growth inhibition at 3 mg/kg, po bid administered by gavage for 17 days and measured 3 times per week by caliper method relative to control; type: functional; settings: MV4-11, 408 h, time 17 day, read-out: TGI
[22] = Half life in Sprague-Dawley rat at 5 mg/kg, po or 1 mg/kg, iv administered as single dose and measured for 24 hrs by LC-MS/MS analysis; type: ADME, organism-based; settings: in vivo
[23] = Clearance in Beagle dog assessed as liver blood flow at 1 mg/kg, po or 0.5 mg/kg, iv administered as single dose and measured for 24 hrs by LC-MS/MS analysis; type: ADME, organism-based, Canis lupus familiaris; settings: in vivo
[24] = Clearance in Sprague-Dawley rat assessed as liver blood flow at 5 mg/kg, po or 1 mg/kg, iv administered as single dose and measured for 24 hrs by LC-MS/MS analysis; type: ADME, organism-based; settings: in vivo
[25] = target: Dual specificity tyrosine-phosphorylation-regulated kinase 1B (Homo sapiens, UniProt Q9Y463); assay: Binding affinity to DYRK1B (unknown origin) assessed as dissociation constant by competitive binding assay
Dual specificity tyrosine-phosphorylation-regulated kinase 1B, sequence (Q9Y463 whole entry): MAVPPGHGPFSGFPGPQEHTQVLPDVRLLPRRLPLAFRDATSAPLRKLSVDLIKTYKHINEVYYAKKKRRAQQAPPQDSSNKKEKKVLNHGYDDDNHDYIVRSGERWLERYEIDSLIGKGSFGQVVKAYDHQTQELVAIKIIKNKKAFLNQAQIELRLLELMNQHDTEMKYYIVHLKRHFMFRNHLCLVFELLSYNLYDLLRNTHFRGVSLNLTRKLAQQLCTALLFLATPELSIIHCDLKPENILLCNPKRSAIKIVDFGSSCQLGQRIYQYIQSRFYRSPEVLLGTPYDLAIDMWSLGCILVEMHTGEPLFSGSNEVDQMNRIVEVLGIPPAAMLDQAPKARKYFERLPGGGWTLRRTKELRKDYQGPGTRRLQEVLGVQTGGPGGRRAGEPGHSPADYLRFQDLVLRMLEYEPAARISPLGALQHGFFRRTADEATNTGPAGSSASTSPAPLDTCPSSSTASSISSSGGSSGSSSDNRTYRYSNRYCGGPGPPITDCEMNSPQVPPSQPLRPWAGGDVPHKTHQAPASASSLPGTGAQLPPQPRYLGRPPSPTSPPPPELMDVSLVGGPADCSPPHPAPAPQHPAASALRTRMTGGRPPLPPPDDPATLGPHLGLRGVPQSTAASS

SMILES: Cc1n[nH]c2ccc(-c3nnc(C)n3Cc3ccc(C(F)(F)F)cc3)cc12
- CLint scaled at 1 µM [1]: 29.9 mL/min/kg
- bioavailability [2]: 97.7%
- Kd [3]: 68 nM
- Activity [4]: Active
- Kd [5]: 89 nM
- IC50 [6]: 0.7 nM
- EC50 [7]: > 10000 nM
- inhibition in vivo at 1 mg/kg [8]: 46.1%
- IC50 [9]: 2 nM
- Activity [10]: Active
- IC50 [11]: 30800 nM
- Vd [12]: 0.5 L/kg
- Activity [13]: Active
- Vd [14]: 1.2 L/kg
- bioavailability [15]: 87.4%
- Kd [16]: 210 nM
- IC50 [17]: 11400 nM
- IC50 [18]: 44200 nM
- inhibition [19]: Dose-Dependent Effect
- half-life [20]: 3.8 h
- inhibition in vivo at 3 mg/kg [21]: 84.8%
- half-life [22]: 3.9 h
- LBF [23]: 7.2%
- LBF [24]: 27%
- Kd [25]: 2700 nM

Reference: ChEMBL document CHEMBL5380857, “Discovery of Potent, Selective, and Orally Bioavailable Small-Molecule Inhibitors of CDK8 for the Treatment of Cancer” (J Med Chem, 2023)
